The values below come from ChEMBL document CHEMBL1151059, “Synthesis and x-ray structure of a potent superpositional analog of the enantiomeric forms of fluoxetine” (Bioorg Med Chem Lett, 1993).

This assay in a line: Tested in vitro for inhibition of Serotonin uptake. It is filed as functional.

For the compound `CNCCC(Oc1ccc(C(F)(F)F)cc1)c1ccccc1` (configuration not stated), the Activity was determined as 700 nM. `FC(F)(F)c1ccc(OC2(c3ccccc3)CCNCC2)cc1` registered an Activity of 580 nM.
